“And” between values parts separate entries of the source, which are not always exact repeats. Equal entries are not always repeated. “Also recorded” adds a separate entry of the source. Where two headings read alike, the source gives them in different places.
Key:
WT PS2-complex = target: T1, WT PS2-complex (Homo sapiens, UniProt P49810); test: in vitro cleavage assay, AICD production by western blot; type: biochemical; settings: 10 μM MRK-560, WT PS2-complex
T1 construct: made in house; host or cells: mammalian cells (HEK293F is stated for the cryo-EM samples)
Description: (§1) The PS1- or PS2 complexes were expressed and purified as described. To validate the inhibitory effect of MRK-560 (Fig. 1a), we reconstituted an in vitro cleavage assay using the purified PS1- or PS2 complexes. Production of Aβ40, which is the major cleavage product among the varying lengths of Aβs, and AICD, whose cleavage reflects the endopeptidase activity of γ-secretase, are measured with AlphaLISA and western blots, respectively.
(§2) Release of AICD in the presence of decreasing concentrations of MRK-560 from 10 μM to 2 nM was monitored by western blot with the primary monoclonal antibody against the C-terminal Myc tag. The production of AICD was quantified by ImageJ. Red asterisks indicate the first concentration where the normalized production of AICD was reduced to less than 20%. Each cleavage assay in (b–d) was repeated for three times. Error bars: SD. Source Data is available as a Source Data file.
(§3) All proteins used for the activity assay were sub-cloned, expressed and purified as described. Protein concentration was determined using the Bradford method. […] The cleaved products of these substrates were detected using a monoclonal antibody (1:1000 dilution, CW0299, CWBio) against the C-terminal Myc tag. Aβ40 production was detected using the AlphaLISA assay (PerkinElmer) as described. The IC50 values and the inhibition curves were calculated using Prism 8.0.

WT PS1-complex = target: T2, WT PS1-complex (Homo sapiens, UniProt P49768); test: as above; type: biochemical; settings: 200 nM MRK-560, WT PS1-complex
T2 construct: made in house; host or cells: mammalian cells (HEK293F is stated for the cryo-EM samples)
Description: as §1, §2, §3

[1] = target: T3, PS1-complex (WT PS1-containing γ-secretase) (Homo sapiens, UniProt P49768); test: in vitro cleavage assay, Aβ40 production by AlphaLISA; type: biochemical; settings: for remaining activity at 0.002 µM / remaining activity at 0.01 µM / remaining activity at 0.04 µM / remaining activity at 0.2 µM / remaining activity at 1 µM / remaining activity at 10 µM: 4 h
T3 construct: made in house; host or cells: mammalian cells (HEK293F is stated for the cryo-EM samples)
Description: (§4) The PS1- or PS2 complexes were expressed and purified as described. To validate the inhibitory effect of MRK-560 (Fig. 1a), we reconstituted an in vitro cleavage assay using the purified PS1- or PS2 complexes. Production of Aβ40, which is the major cleavage product among the varying lengths of Aβs, and AICD, whose cleavage reflects the endopeptidase activity of γ-secretase, are measured with AlphaLISA and western blots, respectively. All proteins used for the activity assay were sub-cloned, expressed and purified as described. Protein concentration was determined using the Bradford method. […] The cleavage reaction was conducted at 37 °C for 4 h. The cleaved products of these substrates were detected using a monoclonal antibody (1:1000 dilution, CW0299, CWBio) against the C-terminal Myc tag. Aβ40 production was detected using the AlphaLISA assay (PerkinElmer) as described. The IC50 values and the inhibition curves were calculated using Prism 8.0. Statistical analysis of Aβ40 was performed using Prism 8 (GraphPad Software, San Diego, CA, USA). IC50 were determined by a four-parameter logistic regression. The statistical details can be found in Figs. 1, 4 and legends. Data are expressed as mean ± SD.

[2] = target: T4, PS2-complex (WT PS2-containing γ-secretase) (Homo sapiens, UniProt P49810); test: as above; type: biochemical; settings: for remaining activity at 0.002 µM / remaining activity at 0.01 µM / remaining activity at 0.04 µM / remaining activity at 0.2 µM / remaining activity at 1 µM / remaining activity at 10 µM: 4 h; for remaining activity at 0.002 µM / remaining activity at 0.01 µM / remaining activity at 0.04 µM / remaining activity at 0.2 µM / remaining activity at 1 µM / remaining activity at 10 µM / Caculated Aβ40 production / raw data from α-Lisa reading: PS2 WT
T4 construct: made in house; host or cells: mammalian cells (HEK293F is stated for the cryo-EM samples)
Description: as §4

PS2 variants = test: in vitro cleavage assay, AICD production by western blot; type: biochemical, human; settings: PS2 variants versus WT PS2
Description: Fig. 4 Thr281 and Leu282 of PS1 determine the isoform selectivity of MRK-560. a–c Individual and double residue swapping of Thr281 and Leu282 in PS1 with the corresponding Pro287 and Ile288 in PS2 alter their respective sensitives to MRK-560 accordingly. IC50 values for MRK-560 inhibition of the indicated PS1 (a) and PS2 (b) mutants were measured using the AlphaLISA assay that detects Aβ40 production. Please refer to Methods for experimental details. Data are presented as mean values ± SD. c Production of AICD by residue-swapped PS1 and PS2 mutants. The amount of AICD generated by the indicated variants in the presence of serial diluted MRK-560 is consistent with the corresponding IC50 shown in (a, b). […] The production of AICD was quantified by ImageJ. Red asterisks indicate the first concentration where the normalized production of AICD was reduced to less than 20%. Source data are provided as a Source Data file. […]
as §3

Notch = tested on: Notch; parameters: method as in PMID 17099072, PMID 16443723; settings: wild-type (WT) mouse model; cited from earlier work
[3] = PS1 WT, MRK-560 2 nM, replicates
[4] = PS1 WT, MRK-560 10 nM, replicates
[5] = PS1 WT, MRK-560 40 nM, replicates
[6] = PS1 WT, MRK-560 200 nM, replicates
[7] = PS1 WT, MRK-560 1 μM, replicates
[8] = PS1 WT, MRK-560 10 μM, replicates

O=S(=O)(NC1CCC(c2cc(F)ccc2F)(S(=O)(=O)c2ccc(Cl)cc2)CC1)C(F)(F)F (stereo not drawn) [MRK-560, N-[cis-4-[(4-chlorophenyl)sulfonyl]-4-(2,5-difluorophenyl)cyclohexyl]-1,1,1-trifluoromethanesulfonamide]
Generation of AICD (WT PS2-complex): can still be detected; also recorded: could not be completely inhibited
Generation of AICD (WT PS1-complex): completely inhibited
remaining activity at 0.002 µM ([1]; PS1 WT, MRK-560 2 nM, mean of 3 replicates, read-out: Normalized production (control=1), Mean): 101%
remaining activity at 0.002 µM ([1]; PS1 WT, MRK-560 2 nM, replicates, read-out: Normalized production (control=1)): 102%
remaining activity at 0.01 µM ([1]; PS1 WT, MRK-560 10 nM, mean of 3 replicates, read-out: Normalized production (control=1), Mean): 92.4%
remaining activity at 0.01 µM ([1]; PS1 WT, MRK-560 10 nM, replicates, read-out: Normalized production (control=1)): 90.9%
remaining activity at 0.04 µM ([1]; PS1 WT, MRK-560 40 nM, mean of 3 replicates, read-out: Normalized production (control=1), Mean): 43.2%
remaining activity at 0.04 µM ([1]; PS1 WT, MRK-560 40 nM, replicates, read-out: Normalized production (control=1)): 43.4%
remaining activity at 0.2 µM ([1]; PS1 WT, MRK-560 200 nM, mean of 3 replicates, read-out: Normalized production (control=1), Mean): 8.2%
remaining activity at 0.2 µM ([1]; PS1 WT, MRK-560 200 nM, replicates, read-out: Normalized production (control=1)): 8.25%
remaining activity at 1 µM ([1]; PS1 WT, MRK-560 1 μM, mean of 3 replicates, read-out: Normalized production (control=1), Mean): 0.63%
remaining activity at 1 µM ([1]; PS1 WT, MRK-560 1 μM, replicates, read-out: Normalized production (control=1)): 0.63%
remaining activity at 10 µM ([1]; PS1 WT, MRK-560 10 μM, mean of 3 replicates, read-out: Normalized production (control=1), Mean): 0.52%
remaining activity at 10 µM ([1]; PS1 WT, MRK-560 10 μM, replicates, read-out: Normalized production (control=1)): 0.46%
IC50 ([1]; PS1-complex WT, mean ± SD, n=3): 33 ± 2 nM
Caculated Aβ40 production [1, 3]: 346.0052 and 350.2238 and 339.9166
raw data from α-Lisa reading [1, 3]: 53851 and 52412 and 53263
Caculated Aβ40 production [1, 4]: 325.7701 and 311.5896 and 312.3355
raw data from α-Lisa reading [1, 4]: 48416 and 48522 and 50424
Caculated Aβ40 production [1, 5]: 146.9566 and 148.7756 and 148.6084
raw data from α-Lisa reading [1, 5]: 24210 and 24184 and 23927
Caculated Aβ40 production [1, 6]: 26.7052 and 28.2767 and 29.2852
raw data from α-Lisa reading [1, 6]: 4813 and 4981 and 4551
Caculated Aβ40 production [1, 7]: 2.1627 and 2.1745 and 2.1272
raw data from α-Lisa reading [1, 7]: 430 and 422 and 428
Caculated Aβ40 production [1, 8]: 1.8967 and 1.5777 and 1.8849
Normalized production (control=1) [1, 8]: 0.0055
raw data from α-Lisa reading [1, 8]: 329 and 381 and 383
remaining activity at 0.002 µM ([2]; MRK-560 2 nM, mean of 3 replicates, read-out: Normalized production (control=1), Mean): 98.5%
remaining activity at 0.002 µM ([2]; MRK-560 2 nM, replicates, read-out: Normalized production (control=1)): 96.8%
remaining activity at 0.01 µM ([2]; MRK-560 10 nM, mean of 3 replicates, read-out: Normalized production (control=1), Mean): 93.7%
remaining activity at 0.01 µM ([2]; MRK-560 10 nM, replicates, read-out: Normalized production (control=1)): 96.7%
remaining activity at 0.04 µM ([2]; MRK-560 40 nM, mean of 3 replicates, read-out: Normalized production (control=1), Mean): 94.4%
remaining activity at 0.04 µM ([2]; MRK-560 40 nM, replicates, read-out: Normalized production (control=1)): 92.8%
remaining activity at 0.2 µM ([2]; MRK-560 200 nM, mean of 3 replicates, read-out: Normalized production (control=1), Mean): 44.1%
remaining activity at 0.2 µM ([2]; MRK-560 200 nM, replicates, read-out: Normalized production (control=1)): 43.5%
remaining activity at 1 µM ([2]; MRK-560 1 μM, mean of 3 replicates, read-out: Normalized production (control=1), Mean): 9.52%
remaining activity at 1 µM ([2]; MRK-560 1 μM, replicates, read-out: Normalized production (control=1)): 8.72%
remaining activity at 10 µM ([2]; MRK-560 10 μM, mean of 3 replicates, read-out: Normalized production (control=1), Mean): 6.39%
remaining activity at 10 µM ([2]; MRK-560 10 μM, replicates, read-out: Normalized production (control=1)): 6.67%
IC50 ([2]; PS2-complex WT, mean ± SD, n=3): 173 ± 24 nM
Caculated Aβ40 production ([2]; MRK-560 2 nM, replicates): 178.2729 and 172.6848 and 175.9467
raw data from α-Lisa reading ([2]; MRK-560 2 nM, replicates): 27903 and 28403 and 28759
Caculated Aβ40 production ([2]; MRK-560 10 nM, replicates): 177.3643 and 172.5675 and 151.3305
raw data from α-Lisa reading ([2]; MRK-560 10 nM, replicates): 27885 and 24607 and 28620
Caculated Aβ40 production ([2]; MRK-560 40 nM, replicates): 171.4208 and 165.5620 and 168.4662
raw data from α-Lisa reading ([2]; MRK-560 40 nM, replicates): 26808 and 27255 and 27709
Caculated Aβ40 production ([2]; MRK-560 200 nM, replicates): 82.1115 and 77.5422 and 76.1780
raw data from α-Lisa reading ([2]; MRK-560 200 nM, replicates): 12906 and 12685 and 13645
Caculated Aβ40 production ([2]; MRK-560 1 μM, replicates): 17.8069 and 15.5539 and 17.5803
raw data from α-Lisa reading ([2]; MRK-560 1 μM, replicates): 2685 and 3025 and 3063
Caculated Aβ40 production ([2]; MRK-560 10 μM, replicates): 12.9409 and 11.9064 and 9.3762
raw data from α-Lisa reading ([2]; MRK-560 10 μM, replicates): 2072 and 1646 and 2246
sensitivity of AICD production to MRK-560 (PS2 variants): increased sensitivity
Notch-related side effect (Notch): does not induce Notch-related side effect
